According to US20090275099A1 (priority 2004, published 2009):
Where two headings read alike, the source gives them in different places.

Tests used:
[1] = test system: Jurkat cells; experiment: early O2− (ROS) response, 1 h; format: cell-based; conditions: Homo sapiens, Jurkat, 1 h, read-out: ROS EC50 (μM), Jurkat cells
Procedure: To detect O2^−, cells are incubated with DHE (10 μM) for 30 min at 37° C. and are analyzed by flow cytometry to measure ethidium fluorescence. Flow analysis of mitochondrial transmembrane potential (ψm) is conducted by labeling cells with DiOC6(3) (20 nM) for 15 min at 37 degrees C. A positive control for disruption of ψm is established using carbonyl cyanide m-chlorophenylhydrazone (CCCP, 50 μM). Caspase activation assays are performed with FAM-VAD-fluoromethylketone. Processing of the substrate is evaluated by flow cytometry.
Since an early mitochondrial superoxide (O2^−) mediates apoptosis induced by Bz-423, the O2^− response of cells 1 h following incubation with drug was examined, as well as cell death at 24 h, as previously described (see, e.g., Blatt, N. B., et al., 2002 J Clin Invest 110, 1123-1132; incorporated herein by reference in its entirety).

[2] = target: F1F0-ATPase (Bos taurus, UniProt P13621+P32876); experiment: off-rate measurements, recovery of ATP synthesis of SMPs after dilution; format: biochemical, bovine
Procedure: Inhibition of Na,K-ATPases with oligomycin is time-dependent and results from a slow rate of dissociation from the enzyme (0.05 s^−1) (see, e.g., Esmann, M. (1991) Biochim. Biophys. Acta 1064, 31-36; herein incorporated by reference in its entirety). Since time-dependent inhibition can have profound effects on the function of the F1F0-ATPase, the off-rate of Bz-423 and oligomycin during ATP synthesis was examined. […] Inhibited SMP suspensions were diluted into buffer and activity was measured over time. Enzymatic activity of the SMPs incubated with Bz-423 had recovered to 90% of control at 10 s, indicating rapid dissociation (see, FIG. 18). In contrast, the activity of the enzyme incubated with oligomycin was only 54% of the uninhibited activity at 10 s, and increased for several minutes after dilution (see, FIG. 18). The time-dependence of the recovery of activity fit to a single exponential yielding an apparent dissociation rate constant for Bz-423>0.3 s^−1. However, dissociation of oligomycin was complex and a portion of the inhibitor dissociated at least 10-fold slower, consistent with a tight-binding, slow-dissociating inhibitor (see, e.g., Morrison, J. F., and Walsh, C. T. (1988) Adv. Enzymol. Relat. Areas Mol. Biol. 61, 201-301; herein incorporated by reference in its entirety). Presumably, the constraints of a high-affinity inhibitor dissociating from the membrane embedded proton channel presented a significant barrier for dissociation resulting in a slow off-rate.
Off-rate measurements. Rate of inhibition of ATP synthesis was measured as described above with the following changes. A 20 μL aliquot of SMPs (1 mg mL^−1) in synthesis buffer (with 10 mM K2HPO4) was added to each well of a 96-well plate containing 2.5 μL of 100× drug (14 μM Bz-423 and 35 nM oligomycin, final) or DMSO vehicle control. The drug was diluted out by adding 200 μL of synthesis buffer to each well. Substratecoupling mixture (25 μL with 1 mM ADP) was added to each well at the indicated time point and the rate of NADP^+ reduction was monitored over time.

[3] = test system: neuroblastoma cell line SHEP-1; experiment: antiproliferation, 72 h, 10% FBS; format: cell-based; conditions: SH-EP1, SHEP-1, 72 h, read-out: ED50 for antiproliferation
Procedure: (§1) Like most 1,4-benzodiazepines, Bz-423 binds strongly to bovine serum albumin (BSA), which reduces the effective concentration of drug free in solution. For example, in tissue culture media containing 10% (v/v) fetal bovine serum (FBS), ca. 99% of the drug is bound to BSA. Therefore, cell culture cytotoxicity assays are conducted in media with 2% FBS to reduce binding to BSA and increase the free [Bz-423]. Under these conditions, the dose response-curve is quite sharp such that there is a limited concentration range at which Bz-423 is only partly effective. Since some benzodiazepines are known to have anti-proliferative properties, the effect of Bz-423 at concentrations <ED50 were carefully analyzed and observed that in addition to inducing apoptosis, Bz-423 prevented cell growth after 3 d in culture. In these low serum conditions, the cytotoxic and anti-proliferative effects overlapped making it difficult to study each effect independently. […] While higher amounts of drug may also block proliferation, it caused apoptosis well before the effects on proliferation could be observed.
(§2) To confirm the decrease in cell number relative to control cells after 3 d of treatment is due to decreased proliferation and not cell death balanced by proliferation, in addition to cell counting, cell divisions were studied. PKH-67 is a fluorescent probe that binds irreversibly to cell membranes and upon cell division is partitioned equally between the daughter cells, making it possible to quantify cell division by flow cytometry. Ramos cells stained with PKH67 and treated with Bz-423 had fewer cell divisions at sub-cytotoxic concentrations which confirmed that the decrease in cell number was due to anti-proliferative affects and not cell death. To determine if Bz-423 induced anti-proliferation was specific to Ramos cells, cell counting and cell cycle experiments were done in other B cell lines and cell lines derived from solid tumors.

[4] = test system: Ramos cells; experiment: antiproliferation, 72 h, 10% FBS; format: cell-based; conditions: Homo sapiens, read-out: ED50 for antiproliferation
Procedure: as §1, §2

[5] = test system: malignant B cell line CA46; experiment: antiproliferation, 72 h, 10% FBS; format: cell-based; conditions: Homo sapiens, CA46, 72 h, read-out: ED50 for antiproliferation
Procedure: as §1, §2

[6] = test system: neuroblastoma cell line IMR-32; experiment: antiproliferation, 72 h, 10% FBS; format: cell-based; conditions: Homo sapiens, IMR-32, 72 h, read-out: ED50 for antiproliferation
Procedure: as §1, §2

[7] = test system: Ramos clones transfected to overexpress Bcl-2; experiment: antiproliferation, 72 h, 10% FBS; format: cell-based; conditions: Homo sapiens, Bcl-2, 72 h, read-out: ED50 for antiproliferation
Procedure: as §1, §2

[8] = test system: ovarian cells with null p53 (SKOV3); experiment: antiproliferation, 72 h, 10% FBS; format: cell-based; conditions: Homo sapiens, SK-OV-3, SKOV3, 72 h, read-out: ED50 for antiproliferation
Procedure: as §1, §2

[9] = test system: Ramos clones transfected to overexpress Bcl-xL; experiment: antiproliferation, 72 h, 10% FBS; format: cell-based; conditions: Homo sapiens, read-out: ED50 for antiproliferation
Procedure: as §1, §2

[10] = test system: neuroblastoma cell line Lan-1; experiment: antiproliferation, 72 h, 10% FBS; format: cell-based; conditions: LAN1, Lan-1, 72 h, read-out: ED50 for antiproliferation
Procedure: as §1, §2

[11] = test system: malignant B cell line Raji; experiment: antiproliferation, 72 h, 10% FBS; format: cell-based; conditions: Homo sapiens, read-out: ED50 for antiproliferation
Procedure: as §1, §2

With `CN1C(=O)C(Cc2ccc3ccccc3c2)N=C(c2ccc(O)cc2)c2cc(Cl)ccc21` (stereo not drawn) [Bz-423] the EC50 [1] was 10 µM, the “reduction of F1F0-ATPase activity at the concentration produced after dilution” value ([2]; 1.4 μM Bz-423, 3.5 nM oligomycin) was 10% and the activity at 14 µM ([2]; 14 μM Bz-423 or 35 nM oligomycin, read-out: ATP synthesis activity relative to that in the absence of inhibitor) was 27%. For the same compound, the “enzymatic activity recovered after dilution, % of control” value ([2]; at 10 s after dilution) was 90%, the koff ([2]; read-out: dissociation rate from the enzyme-substrate complex) was roughly 0.2 s⁻¹ and the koff ([2]; single exponential fit, read-out: apparent dissociation rate constant) was greater than 0.3 s⁻¹. For the same compound, the EC50 [3] was 15.9 µM, the EC50 [4] was 10.7 µM and the EC50 [5] was 13.4 µM. The EC50 [6] was 18 µM, the EC50 [7] was 11.9 µM and the EC50 [8] was 18.2 µM. The EC50 [9] was 13.7 µM, the EC50 [10] was 13.7 µM and the EC50 [11] was 12.9 µM.
